Assay type in all cases: cell-based
Holding throughout (design): key to effect of inhibiting tumor cell growth: “+” represents that the compound has the effect of inhibiting tumor cell growth

Data set [1] concerns lung cancer cells (Bm7brmx2). The data set can be described thus: cytotoxicity assay in Bm7brmx2 cells. The protocol:
(§1) Please refer to FIG. 1A, FIG. 1B and Table 2, which show the analysis results of the compound of Formula (I) inhibiting ADAM9 activity. In FIG. 1A, Bm7 lung cancer cells were treated with the derivatives of the compound 6X-0310, and then cultured under anchorage-free culture condition. The expressions of ADAM9 and CDCP1 in Bm7 lung cancer cells were detected by Western blot, in which EF1α is an internal control, and mock represents Bm7 lung cancer cells without treatment. […] In the experiment, the compounds of Formula (I) of Example 1 to Example 32 were further performed cytotoxicity assay to measure the IC50 value of the compounds of Formula (I) of the present disclosure in lung cancer cell lines.

Data set [2] has as its system lung cancer cells (TC1). Put plainly: cytotoxicity assay in TC1 cells. Particulars: for IC50: TC-1. As for the experimental part:
as §1

Data set [3] deals with lung cancer cells (A549). The data set can be described thus: cytotoxicity assay in A549 cells. To be noted: for IC50: Homo sapiens. The protocol: as §1
Data set [4] has as its system lung cancer cells (Bm7brmx2-2nd). Put plainly: cytotoxicity assay in Bm7brmx2-2nd cells. The protocol:
as §1

Data set [5] has as its system lung cancer cells (Bm7brmx2-1st). Put plainly: cytotoxicity assay in Bm7brmx2-1st cells. The protocol: as §1
For data set [6], the system named is lung cancer cells (H1299). Put plainly: cytotoxicity assay in H1299 cells. Particulars: for effect of inhibiting tumor cell growth: H1299; for IC50: Homo sapiens, NCI-H1299. The protocol: as §1
The subject of data set [7] is HNOF. Put plainly: cytotoxicity assay in HNOF cells. To be noted: HNOF.
Data set [8] in a line: cytotoxicity assay in HNOF cells. To be noted: human, HNOF cells.
Data set [9] has as its system kidney cancer cells (293). Put plainly: cytotoxicity assay in 293 cells. Particulars: Homo sapiens, HEK293.
A short description of data set [10]: cytotoxicity assay in 293 cells. Particulars: 293.

The record followed here is patent US20220202783A1, “Use Of ADAM9 Inhibitor As Immunomodulator” (China Medical University, priority 2019, published 2022).

Each structure is given as a SMILES string.

In general, IC50 refers to the midpoint of a concentration-inhibition curve. Turning to `N#C/C(=C\c1ccccc1Oc1ccc(Cl)cc1Cl)c1nc(CCN2C(=O)c3ccccc3C2=O)cs1` [4X-0312], the IC50 in [1] was found to be 301 µM; in data set [2], 136 µM; in data set [3], 644 µM; in data set [4], 491 µM; in data set [5], 63.4 µM; in [6], 121 µM. The IC50 in [8] is 262 µM; in [9] it was 134 µM. Besides, the “effect of inhibiting tumor cell growth” value in [1], in data set [2], in [3], in [4], in [5] and in [6] was “+” each time. Moreover, the “effect of inhibiting tumor cell growth” value in [7] and in data set [10] was “+” each time.
On to `N#C/C(=C\c1ccncc1)c1nc(CCN2C(=O)c3ccccc3C2=O)cs1` [4X-0314], for which the concentration for half-maximal inhibition (IC50) amounted to 202 µM in [1]; 176 µM in data set [2]; 527 µM in [3]; 15700 µM in data set [4]; 1420 µM in data set [5]; 38400 µM in [6]. The 50% inhibitory concentration (IC50) in data set [8] was determined as 153 µM; in [9], 269 µM. The “effect of inhibiting tumor cell growth” value in [1], in [2], in data set [3], in data set [4], in [5] and in [6] was “+” in each case. For the same compound, the “effect of inhibiting tumor cell growth” value in data set [7] and in data set [10] was “+” each time.
With `COc1ccc(C(=O)Nc2nc(CCN3C(=O)c4ccccc4C3=O)cs2)cc1OC` [5X-0314], the IC50 came out at 66.5 µM in [1]; 202 µM in data set [2]; 184 µM in data set [3]; 90.6 µM in data set [4]; 51 µM in data set [5]; 116 µM in [6]. Also, the IC50 in data set [8] stood at 85.7 µM; in data set [9] it was 49.3 µM. Besides, the “effect of inhibiting tumor cell growth” value in data set [1], in [2], in data set [3], in data set [4], in data set [5] and in [6] was “+” in each case. The “effect of inhibiting tumor cell growth” value in [7] and in [10] was “+” in each case.
`O=C(Nc1nc(CCN2C(=O)c3ccccc3C2=O)cs1)c1ccc([N+](=O)[O-])cc1` [6X-0202]: the IC50 in data set [1] is more than 125 µM; in data set [2] it was 125 µM; in data set [3], 766 µM; in [4], 1270 µM; in data set [5], 68.6 µM; in data set [6], 335 µM. Also, the IC50 worked out at 78.3 µM in data set [8] and 47.6 µM in data set [9]. The “effect of inhibiting tumor cell growth” value in data set [1], in data set [2], in data set [3], in data set [4], in data set [5] and in [6] was “+” in each case. Further, the “effect of inhibiting tumor cell growth” value in [7] and in data set [10] was “+” in each case.
Consider `N#C/C(=C/c1cc([N+](=O)O)ccc1Sc1ccccn1)c1nc(CCN2C(=O)c3ccccc3C2=O)cs1` [6X-0229], for which the IC50 was 374 µM in [1]; 167 µM in data set [2]; 109 µM in [3]; 113 µM in data set [4]; 56.2 µM in [5]; 171 µM in [6]. Moreover, the IC50 in [8] is 145 µM; in [9] it was 133 µM. For the same compound, the “effect of inhibiting tumor cell growth” value in [1], in data set [2], in data set [3], in [4], in data set [5] and in data set [6] was “+” each time. In addition, the “effect of inhibiting tumor cell growth” value in data set [7] and in data set [10] was “+” each time.
As for `N#C/C(=C\c1cccc2ccccc12)c1nc(CCN2C(=O)c3ccccc3C2=O)cs1` [6X-0309], the IC50 in [1] is 89.8 µM; in data set [2], 89.4 µM; in data set [3], more than 125 µM; in [4], 385 µM; in data set [5], 628 µM; in data set [6], 93.8 µM. For the same compound, the IC50 in data set [8] was found to be 114 µM; in data set [9] it was 82.2 µM. Moreover, the “effect of inhibiting tumor cell growth” value in [1], in data set [2], in [3], in [4], in data set [5] and in data set [6] was “+” throughout. For the same compound, the “effect of inhibiting tumor cell growth” value in data set [7] and in data set [10] was “+” throughout.
Consider `N#C/C(=C\C=C\c1ccccc1)c1nc(CCN2C(=O)c3ccccc3C2=O)cs1` [6X-0311], for which the IC50 in data set [1] was more than 125 µM; in [2], more than 125 µM; in [3], 211 µM; in data set [4] it was 590 µM; in data set [5] it was more than 50 µM; in data set [6], 505 µM. Besides, the IC50 in data set [8] came out at 411 µM; in [9], 231 µM. Besides, the “effect of inhibiting tumor cell growth” value in data set [1], in [2], in [3], in data set [4], in data set [5] and in data set [6] was “+” throughout. Further, the “effect of inhibiting tumor cell growth” value in data set [7] and in data set [10] was “+” throughout.
With `O=C1c2ccccc2C(=O)N1CCc1csc(-c2ccccc2)n1` [11W-0296], the IC50 was determined as 1260 µM in [1]; 259 µM in data set [2]; 421 µM in [3]; 147 µM in data set [4]; 175 µM in data set [5]; 234 µM in [6]. Also, the results for the IC50 in [8] and in data set [9] were 92 µM and 62.6 µM, respectively. Besides, the “effect of inhibiting tumor cell growth” value in [1], in data set [2], in data set [3], in data set [4], in data set [5] and in data set [6] was “+” each time. In addition, the “effect of inhibiting tumor cell growth” value in data set [7] and in data set [10] was “+” in each case.
On to `O=C1c2ccccc2C(=O)N1CCc1csc(COc2cccc(C(F)(F)F)c2)n1` [12W-0232], for which the IC50 is 138 µM in [1]; 99.2 µM in data set [2]; 184 µM in [3]; 77.7 µM in data set [4]; more than 50 µM in data set [5]; 119 µM in [6]. The IC50 in [8] amounted to 103 µM; in [9], 73.6 µM. The “effect of inhibiting tumor cell growth” value in data set [1], in data set [2], in [3], in data set [4], in data set [5] and in [6] was “+” each time. The “effect of inhibiting tumor cell growth” value in [7] and in [10] was “+” throughout.
In the case of `O=C1c2ccccc2C(=O)N1CCc1csc(-c2ccccn2)n1` [12W-0266], the IC50 was 429 µM in data set [1]; 169 µM in [2]; 190 µM in data set [3]; 134 µM in data set [4]; 88.8 µM in data set [5]; 253 µM in data set [6]. Besides, the IC50 in [8] turned out to be 184 µM; in [9], 122 µM. Besides, the “effect of inhibiting tumor cell growth” value in [1], in [2], in data set [3], in data set [4], in data set [5] and in data set [6] was “+” each time. Besides, the “effect of inhibiting tumor cell growth” value in data set [7] and in data set [10] was “+” throughout.
